# Assay results reported in the NIST ThermoML archive (doi:10.1021/je700202h).
# Numbers after ± are expanded uncertainties.
# Conditions: 101.33 kPa, Liquid
Structure (SMILES),mass density (293.15 K),viscosity (293.15 K),mass density (298.15 K),viscosity (298.15 K),mass density (303.15 K),viscosity (303.15 K),mass density (308.15 K),viscosity (308.15 K),mass density (313.15 K),viscosity (313.15 K)
CCCCCCC [heptane],682.8 ± 0.7 kg/m3,0.4142 ± 0.0078 mPa·s,678.6 ± 0.8 kg/m3,0.3928 ± 0.0075 mPa·s,674.7 ± 0.8 kg/m3,0.3728 ± 0.0072 mPa·s,670.7 ± 0.9 kg/m3,0.3541 ± 0.007 mPa·s,665.6 ± 0.9 kg/m3,0.3374 ± 0.0067 mPa·s
CCCCCCCCC [nonane],717.9 ± 0.9 kg/m3,0.7091 ± 0.012 mPa·s,714 ± 0.9 kg/m3,0.664 ± 0.012 mPa·s,710.8 ± 1 kg/m3,0.6217 ± 0.011 mPa·s,706.7 ± 1 kg/m3,0.5849 ± 0.011 mPa·s,702.8 ± 1.1 kg/m3,0.55 ± 0.01 mPa·s
